What was measured:
human CRTh2 = molecular target: T1, human CRTh2 (Homo sapiens, UniProt Q9Y5Y4); experiment: CRTh2 [3H]-PGD2 binding assay (filtration protocol; called SPA binding assay); details: competition with [3H]-PGD2 (2.5 nM), CHO.K1-CRTh2 membranes
T1 construct: expressed in transfected cells; host or cells: CHO.K1 (Chinese Hamster Ovary) cells expressing human CRTh2; membrane preparation
T1 sequence (Q9Y5Y4 1-395): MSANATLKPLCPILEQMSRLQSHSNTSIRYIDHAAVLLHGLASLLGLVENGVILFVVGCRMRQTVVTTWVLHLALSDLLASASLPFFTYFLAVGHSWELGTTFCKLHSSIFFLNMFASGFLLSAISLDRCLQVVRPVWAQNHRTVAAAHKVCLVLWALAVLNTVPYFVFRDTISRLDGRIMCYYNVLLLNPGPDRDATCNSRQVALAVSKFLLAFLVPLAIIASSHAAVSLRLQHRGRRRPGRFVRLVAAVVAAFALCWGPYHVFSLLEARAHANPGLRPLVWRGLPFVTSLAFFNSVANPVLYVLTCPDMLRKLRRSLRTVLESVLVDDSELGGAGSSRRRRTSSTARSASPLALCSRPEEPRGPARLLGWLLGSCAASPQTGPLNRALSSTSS
Procedure: Filtration Binding Assay Protocol
The binding of CRTh2 modulators is determined using membranes prepared from human CRTh2-expressing Chinese Hamster Ovary cells (CHO.K1-CRTh2). To produce cell membranes CHO.K1-CRTh2 cells cultured in roller bottles are harvested using cell dissociation buffer (Invitrogen). The cells are pelleted by centrifugation (167 g, 5 min). The cell pellet is incubated in hypotonic buffer (15 mM Tris-OH, 2 mM MgCl2, 0.3 mM EDTA, 1 mM EGTA, 1× Complete™ tablet) at 4° C. for 30 min. At 4° C. cells are homogenized using a Polytron® (IKA Ultra Turrax T25) for 5 bursts of 1 second. The homogenate is centrifuged (Beckman Optima™ TL Ultracentrifuge, 48000 g, 30 min at 4° C.). The supernatant is discarded and the membrane pellet resuspended in homogenisation buffer (75 mM Tris-OH, 12.5 mM MgCl2, 0.3 mM EDTA, 1 mM EGTA, 250 mM Sucrose, 1× Complete™ tablet. Membrane preparations are aliquoted and stored at […]. The protein content is estimated using Bradford Protein Assay Dye (Bio Rad).
The binding of [^3H]-PGD2 (157 Ci/mmol) to CHO.K1-CRTh2 membranes is determined in the absence (total binding) and presence (non-specific binding) of unlabelled PGD2 (1 μM). Subtraction of the cpm (counts per minute) of [^3H]-PGD2 binding in presence of excess unlabelled PGD2 from that observed in the absence of excess unlabelled PGD2 is defined as specific binding. Active CRTh2 modulators are able to compete with [^3H]-PGD2 for binding to the CRTh2 receptor and are identified in a decrease in the number of cpm bound. […]
The plates are incubated at room temperature on a shaker for 1 hour, and then harvested (Tomtec Harvester 9600) onto GF/C filter plates using wash buffer (10 mM HEPES-KOH, pH 7.4). […] Plates are then counted using a Packard Top Count instrument, Plates are then read on the Packard Topcount with the 3H Scintillation program (1 min per well).
Ki (dissocation constant for the inhibition) values for the CRTh2 modulators are reported. Ki values are determined using Sigma Plot™ software, using the Cheng-Prussoff equation. […]

[1] = molecular target: T2, CRTh2 receptor in CHO.K1-CRTh2 cells (Homo sapiens, UniProt Q9Y5Y4); experiment: CRTH2 cAMP functional assay; format: cell-based; details: inhibition of PGD2-mediated attenuation of forskolin-induced cAMP accumulation in CHO.K1-CRTh2 cells
T2 construct: expressed in transfected cells; host or cells: CHO.K1-CRTh2 cells (whole cells)
T2 sequence (Q9Y5Y4 1-395): T1 sequence (Q9Y5Y4 1-395)
Procedure: Ki (dissocation constant for the inhibition) values for the CRTh2 modulators are reported. Ki values are determined using Sigma Plot™ software, using the Cheng-Prussoff equation. Ki=IC50/1+[S]/Kd where S is the concentration of radioligand and Kd is the dissociation constant. CRTH2 cAMP Functional Assay Protocol
This assay is conducted in CHO.K1-CRTh2 cells. cAMP is generated in the cell by stimulating cells with 5 μM forskolin, an adenylate cyclase activator. PGD2 is added to activate the CRTh2 receptor which results in the attenuation of the forskolin-induced cAMP accumulation. Potential CRTh2 antagonists are tested for their ability to inhibit the PGD2-mediated attenuation of the forskolin-induced cAMP accumulation in CHO.K1-CRTh2 cells.
For each concentration value on the dose-response curve, test compounds are prepared in assay stimulation buffer (HBSS, 5 mM HEPES, 10 μM IBMX±0.1% human serum albumin) containing DMSO (3% vol/vol) and 5 μL/well is added to an assay plate (384 well white optiplate).
CHO.K1-CRTh2 cultured in tissue culture flasks are washed with PBS and harvested with dissociation buffer. Cells are washed with PBS and resuspended in stimulation buffer to a concentration of 0.4×10^6/mL and added to the assay plate (10 μL/well).
The assay plate is incubated at room temperature on a shaker for 15 minutes.
A mix of agonist (10 nM Prostaglandin D2) and 5 μM forskolin is prepared in assay stimulation buffer and added to the assay plate (5 μL/well).
In addition, a cAMP standard is serially diluted in assay stimulation buffer and added to separate empty wells on the assay plate (20 μL/well). The cAMP standard allows for the quantification of cAMP generated in CHO.K1-CRTH2 cells.
The assay plate is incubated at room temperature on a shaker for 60 minutes. […]
The assay plate is sealed with Topseal-S™ and incubated in the dark at room temperature on a shaker for 45 minutes. The plate is then counted using a Packard Fusion™ instrument. […]

SMILES | Ki (human CRTh2) | IC50 [1]
Cc1c(CC(=O)O)c2cc(F)ccc2n1Cc1ccc(S(C)(=O)=O)cc1C(F)(F)F [Example 2, [5-fluoro-(4-methanesulfonyl-2-trifluoromethyl-benzyl)-2-methyl-1H-indol-3-yl]-acetic acid] | 8 nM | 73 nM
Cc1c(CC(=O)O)c2cc(F)ccc2n1Cc1ccc(S(=O)(=O)N(C)C2CCCCC2)cc1 [Example 4, {1-[4-(Cyclohexyl-methyl-sulfamoyl)-benzyl]-5-fluoro-2-methyl-1H-indol-3-yl}-acetic acid] | 52 nM | 33 nM
Cc1c(CC(=O)O)c2cc(F)ccc2n1Cc1ccc(S(=O)(=O)N2CCCC2)cc1 [Example 5, {5-Fluoro-2-methyl-1-[4-(pyrrolidine-1-sulfonyl)-benzyl]-1H-indol-3-yl}-acetic acid] | 36 nM | 99 nM
